From patent US20240018158A1, “BRM TARGETING COMPOUNDS AND ASSOCIATED METHODS OF USE” (Prelude Therapeutics Incorporated, priority 2020, published 2024)

How the values were obtained:
SMARCA2 = SMARCA2 (Homo sapiens (Human), UniProt P51531); assay: SMARCA2 HiBiT degradation assay in HeLa cells; type: cell-based; settings: 18 hours; for DC50: read-out: DC50 (SM2-HeLa) SMARCA2 degradation potency; for Dmax: read-out: Dmax % (SM2-HeLa) maximum SMARCA2 degradation within the concentrations tested
Method: (§1) HiBiT peptide knock-in of SMARCA2 in LgBiT expressing HEK293T cells was performed by CRISPR-mediated tagging system as described Promega. The homozygous HiBiT knock-in on c-terminus SMARCA2 was confirmed by sanger sequence. SMARCA2-HiBiT knock-in Hela monoclonal cell (CS302366) and SMARCA4-HiBiT knock-in Hela monoclonal cell (CS3023226) were purchased from Promega. The heterozygous HiBiT-knock-in was confirmed by sanger sequence in both SMARCA2-HiBiT and SMARCA4-HiBiT monoclonal cells.
(§2) Dispense 10 μL aliquot of prepared Hela-SMARCA2-HiBiT or Hela-SMARCA4-HiBiT cells (1:1 ratio of cells:Trypan Blue (#1450013, Bio-Rad)) onto cell counting slide (#145-0011, Bio-Rad) and obtain cell density and cell viability using cell counter (TC20, Bio-Rad). Remove appropriate volume of resuspended cells from culture flask to accommodate 2500 cells/well @ 20 μL/well. Transfer Hela-HiBiT cells to 50 ml conical (#430290, Corning). Spin down at 1000 rpm for 5 min using tabletop centrifuge (SPINCHRON 15, Beckman). Discard supernatant and resuspend cell pellet in modified EMEM (#30-2003, ATCC) cell culture media containing 10% FBS (F2422-500ML, Sigma), and 1×Penicillin/Streptomycin (200 g/1) (30-002-CI, Corning) to a cell density of 125,000 cells/ml. Dispense 20 μL of resuspended Hela-HiBit cells per well in 384-well TC treated plate (#12-565-343, Thermo Scientific) using standard cassette (#50950372, Thermo Scientific) on Multidrop Combi (#5840310, Thermo Scientific) inside laminar flow cabinet. Dispense test compounds onto plates using digital liquid dispenser (D300E, Tecan). Incubate plates in humidified tissue culture incubator @37° C. for 18 hours. Add 20 ul of prepared Nano-Glo® HiBiT Lytic detection buffer (N3050, Promega) to each well of 384-well plate using small tube cassette (#24073295, Thermo Scientific) on Multidrop Combi, incubate @ RT for 30-60 min. Read plates on microplate reader (Envision 2105, PerkinElmer) using 384 well Ultra-Sensitive luminescence mode. Raw data files and compound information reports are swept into centralized data lake and deconvoluted using automated scripts designed by TetraScience, Inc. Data analysis, curve-fitting and reporting done in Dotmatics Informatics Suite using Screening Ultra module.

SMARCA4 = SMARCA4 (Homo sapiens (Human), UniProt P51532); assay: SMARCA4 HiBiT degradation assay in HeLa cells; type: cell-based; settings: 18 hours; for DC50: read-out: DC50 (SM4-HeLa) SMARCA4 degradation potency; for Dmax: HeLa, read-out: Dmax % (SM4-HeLa) maximum SMARCA4 degradation within the concentrations tested
Method: as §1, §2

Chain of SMARCA4 (P51532 whole entry): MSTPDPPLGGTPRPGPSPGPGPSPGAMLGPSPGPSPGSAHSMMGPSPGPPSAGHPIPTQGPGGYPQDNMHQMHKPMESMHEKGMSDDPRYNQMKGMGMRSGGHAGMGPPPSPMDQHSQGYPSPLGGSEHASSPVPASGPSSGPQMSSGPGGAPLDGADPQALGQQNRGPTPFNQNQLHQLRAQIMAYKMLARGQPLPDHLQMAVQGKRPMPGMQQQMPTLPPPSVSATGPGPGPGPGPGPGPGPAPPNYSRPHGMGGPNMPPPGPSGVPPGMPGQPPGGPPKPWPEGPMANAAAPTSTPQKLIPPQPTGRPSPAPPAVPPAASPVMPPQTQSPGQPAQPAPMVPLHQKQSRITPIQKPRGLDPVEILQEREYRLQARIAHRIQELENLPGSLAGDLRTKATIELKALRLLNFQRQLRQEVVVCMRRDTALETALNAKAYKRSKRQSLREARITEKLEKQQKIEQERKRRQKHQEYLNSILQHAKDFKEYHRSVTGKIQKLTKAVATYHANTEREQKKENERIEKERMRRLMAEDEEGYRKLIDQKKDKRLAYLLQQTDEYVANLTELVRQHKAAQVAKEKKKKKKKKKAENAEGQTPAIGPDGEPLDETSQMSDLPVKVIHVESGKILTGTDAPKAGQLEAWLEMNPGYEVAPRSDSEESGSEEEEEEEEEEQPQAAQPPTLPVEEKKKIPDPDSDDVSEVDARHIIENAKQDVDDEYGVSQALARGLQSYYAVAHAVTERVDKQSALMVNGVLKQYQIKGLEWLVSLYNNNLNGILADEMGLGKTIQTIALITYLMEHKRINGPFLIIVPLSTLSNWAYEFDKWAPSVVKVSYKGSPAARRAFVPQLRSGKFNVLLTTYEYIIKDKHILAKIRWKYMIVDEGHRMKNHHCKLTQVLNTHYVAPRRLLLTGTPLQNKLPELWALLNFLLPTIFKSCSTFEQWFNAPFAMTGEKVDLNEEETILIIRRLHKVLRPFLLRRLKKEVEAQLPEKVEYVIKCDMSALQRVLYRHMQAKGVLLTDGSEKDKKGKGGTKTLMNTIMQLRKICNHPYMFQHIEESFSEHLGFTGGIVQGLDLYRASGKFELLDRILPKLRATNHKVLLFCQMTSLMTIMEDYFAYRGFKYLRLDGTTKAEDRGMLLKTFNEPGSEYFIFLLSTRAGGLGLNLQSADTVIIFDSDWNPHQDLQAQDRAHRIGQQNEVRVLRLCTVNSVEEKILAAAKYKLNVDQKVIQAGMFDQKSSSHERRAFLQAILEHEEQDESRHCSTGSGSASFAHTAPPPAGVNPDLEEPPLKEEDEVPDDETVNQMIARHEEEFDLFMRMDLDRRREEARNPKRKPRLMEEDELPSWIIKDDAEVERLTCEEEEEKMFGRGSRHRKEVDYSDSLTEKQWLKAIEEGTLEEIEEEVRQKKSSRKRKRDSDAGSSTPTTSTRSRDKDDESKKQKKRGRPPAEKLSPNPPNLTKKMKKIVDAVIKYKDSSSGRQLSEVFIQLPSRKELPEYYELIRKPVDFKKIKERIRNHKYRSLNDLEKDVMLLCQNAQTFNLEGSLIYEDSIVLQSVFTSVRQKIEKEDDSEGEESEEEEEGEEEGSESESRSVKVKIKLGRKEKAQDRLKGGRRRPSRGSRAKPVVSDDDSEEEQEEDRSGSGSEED
Chain of SMARCA2 (P51531 whole entry): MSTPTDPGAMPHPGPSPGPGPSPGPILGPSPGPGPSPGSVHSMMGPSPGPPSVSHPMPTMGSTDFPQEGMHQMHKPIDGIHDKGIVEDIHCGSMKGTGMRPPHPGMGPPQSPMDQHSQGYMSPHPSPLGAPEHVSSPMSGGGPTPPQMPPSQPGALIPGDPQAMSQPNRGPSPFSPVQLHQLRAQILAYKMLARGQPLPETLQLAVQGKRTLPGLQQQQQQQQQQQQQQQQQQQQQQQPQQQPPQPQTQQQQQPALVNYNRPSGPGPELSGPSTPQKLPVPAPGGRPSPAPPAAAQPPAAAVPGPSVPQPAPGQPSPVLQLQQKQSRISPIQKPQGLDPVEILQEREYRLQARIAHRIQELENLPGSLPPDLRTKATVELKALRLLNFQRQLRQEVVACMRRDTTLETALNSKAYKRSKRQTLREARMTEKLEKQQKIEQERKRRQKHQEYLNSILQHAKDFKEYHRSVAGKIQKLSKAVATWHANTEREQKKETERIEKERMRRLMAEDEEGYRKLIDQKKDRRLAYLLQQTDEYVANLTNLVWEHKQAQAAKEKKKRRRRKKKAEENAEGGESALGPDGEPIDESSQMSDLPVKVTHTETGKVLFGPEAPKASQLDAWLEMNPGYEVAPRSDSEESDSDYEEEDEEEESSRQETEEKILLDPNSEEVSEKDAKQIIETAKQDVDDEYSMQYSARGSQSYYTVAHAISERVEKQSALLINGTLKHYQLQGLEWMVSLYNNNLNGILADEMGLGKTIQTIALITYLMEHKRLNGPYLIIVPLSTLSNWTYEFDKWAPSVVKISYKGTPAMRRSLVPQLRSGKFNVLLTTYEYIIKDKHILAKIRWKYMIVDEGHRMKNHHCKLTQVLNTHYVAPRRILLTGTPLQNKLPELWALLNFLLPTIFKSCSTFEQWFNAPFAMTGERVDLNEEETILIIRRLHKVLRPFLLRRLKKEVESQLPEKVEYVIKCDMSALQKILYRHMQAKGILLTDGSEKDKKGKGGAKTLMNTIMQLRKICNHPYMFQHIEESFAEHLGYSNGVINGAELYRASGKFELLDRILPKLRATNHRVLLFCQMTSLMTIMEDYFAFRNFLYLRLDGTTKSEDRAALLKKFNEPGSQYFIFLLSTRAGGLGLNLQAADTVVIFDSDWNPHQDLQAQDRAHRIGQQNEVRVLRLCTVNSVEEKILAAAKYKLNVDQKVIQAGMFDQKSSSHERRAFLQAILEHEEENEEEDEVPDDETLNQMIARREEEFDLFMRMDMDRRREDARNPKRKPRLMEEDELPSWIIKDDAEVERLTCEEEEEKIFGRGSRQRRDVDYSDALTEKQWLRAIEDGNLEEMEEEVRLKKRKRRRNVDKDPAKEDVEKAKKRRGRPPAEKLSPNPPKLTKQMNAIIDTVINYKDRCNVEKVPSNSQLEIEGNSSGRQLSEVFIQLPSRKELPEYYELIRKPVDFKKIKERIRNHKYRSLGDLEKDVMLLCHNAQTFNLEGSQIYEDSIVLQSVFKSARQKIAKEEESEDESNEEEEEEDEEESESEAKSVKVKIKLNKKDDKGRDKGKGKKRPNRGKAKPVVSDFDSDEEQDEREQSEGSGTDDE

SMILES | DC50 (SMARCA2) | Dmax (SMARCA2) | DC50 (SMARCA4) | Dmax (SMARCA4) | Dmax % (SM4-HeLa) maximum SMARCA4 degradation within the concentrations tested (SMARCA4) | Dmax % (SM2-HeLa) maximum SMARCA2 degradation within the concentrations tested (SMARCA2)
Cc1ncsc1-c1ccc([C@H](C)NC(=O)[C@@H]2C[C@@H](O)CN2C(=O)[C@@H](c2cc(OC(C)CN3CCC(N4CCN5c6cc(-c7ccccc7O)nnc6NC[C@H]5C4)CC3)no2)C(C)C)cc1 (stereo partly drawn) [Example 57, (2S,4R)-4-hydroxy-1-((2R)-2-(3-((1-(4-((S)-2-(2-hydroxyphenyl)-5,6,6a,7,9,10-hexahydro-8H-pyrazino[1′,2′:4,5]pyrazino[2,3-c]pyridazin-8-yl)piperidin-1-yl)propan-2-yl)oxy)isoxazol-5-yl)-3-methylbutanoyl)-N-((S)-1-(4-(4-methylthiazol-5-yl)phenyl)ethyl)pyrrolidine-2-carboxamide] | < 100 nM | > 75% | 100 to 1000 nM | 50 to 75% |  | 
Cc1ncsc1-c1ccc([C@H](C)NC(=O)[C@@H]2C[C@@H](O)CN2C(=O)[C@@H](c2cc(O[C@@H](C)CN3CCC(N4CCN5c6cc(-c7ccccc7O)nnc6NC[C@H]5C4)C3)no2)C(C)C)cc1 (stereo partly drawn) [Example 48, (2S,4R)-4-hydroxy-1-((2R)-2-(3-(((2S)-1-(3-((S)-2-(2-hydroxyphenyl)-5,6,6a,7,9,10-hexahydro-8H-pyrazino[1′,2′:4,5]pyrazino[2,3-c]pyridazin-8-yl)pyrrolidin-1-yl)propan-2-yl)oxy)isoxazol-5-yl)-3-methylbutanoyl)N-((S)-1-(4-(4-methylthiazol-5-yl)phenyl)ethyl)pyrrolidine-2-carboxamide] | < 100 nM | > 75% | < 100 nM |  | B (B = 50%< Dmax <=75%) | 
CCC(CN1CCC(N2CCN3c4cc(-c5ccccc5O)nnc4NC[C@H]3C2)C1)Oc1cc(C(C(=O)N2C[C@H](O)C[C@H]2C(=O)N[C@@H](C)c2ccc(-c3scnc3C)cc2)C(C)C)on1 (stereo partly drawn) [Example 62, (2S,4R)-4-hydroxy-1-(2-(3-((1-(3-((S)-2-(2-hydroxyphenyl)-5,6,6a,7,9,10-hexahydro-8H-pyrazino[1′,2′:4,5]pyrazino[2,3-c]pyridazin-8-yl)pyrrolidin-1-yl)butan-2-yl)oxy)isoxazol-5-yl)-3-methylbutanoyl)-N-((S)-1-(4-(4-methylthiazol-5-yl)phenyl)ethyl)pyrrolidine-2-carboxamide] | < 100 nM |  | < 100 nM |  | A/A (A = Dmax >75%) | A/A (A = Dmax >75%)
Cc1ncsc1-c1ccc([C@H](C)NC(=O)[C@@H]2C[C@@H](O)CN2C(=O)[C@@H](c2cc(OCCN3CCC(C(C)N4CCN5c6cc(-c7ccccc7O)nnc6NC[C@H]5C4)CC3)no2)C(C)C)cc1 (single isomer, unassigned) [Example 59] | < 100 nM |  | < 100 nM |  |  | 
Cc1ncsc1-c1ccc([C@H](C)NC(=O)[C@@H]2C[C@@H](O)CN2C(=O)[C@@H](c2cc(CCCN3CCCC(N4CCN5c6cc(-c7ccccc7O)nnc6NC[C@H]5C4)C3)no2)C(C)C)cc1 (stereo partly drawn) [Example 45, (2S,4R)-4-hydroxy-1-((2R)-2-(3-(3-(3-((S)-2-(2-hydroxyphenyl)-5,6,6a,7,9,10-hexahydro-8H-pyrazino[1′,2′:4,5]pyrazino[2,3-c]pyridazin-8-yl)piperidin-1-yl)propyl)isoxazol-5-yl)-3-methylbutanoyl)-N-((S)-1-(4-(4-methylthiazol-5-yl)phenyl)ethyl)pyrrolidine-2-carboxamide] | < 100 nM | > 75% | < 100 nM | 50 to 75% |  | 
Cc1ncsc1-c1ccc([C@H](C)NC(=O)[C@@H]2C[C@@H](O)CN2C(=O)[C@@H](c2cc(O[C@H](C)CN3CCC(N4CCN5c6cc(-c7ccccc7O)nnc6NC[C@H]5C4)C3)no2)C(C)C)cc1 (single isomer, unassigned) [Example 50] | < 100 nM | > 75% | < 100 nM | > 75% |  | 
Cc1ncsc1-c1ccc([C@H](C)NC(=O)[C@@H]2C[C@@H](O)CN2C(=O)[C@@H](c2cc(OCCN3CCCC(CN4CCN5c6cc(-c7ccccc7O)nnc6NC[C@H]5C4)C3)no2)C(C)C)cc1 (single isomer, unassigned) [Example 86] | < 100 nM | > 75% | < 100 nM | > 75% |  | 
